Results as given in patent publication US20230128114A1, “METHODS AND COMPOSITIONS FOR TREATING OR PREVENTING AN INFLAMMATORY CONDITION” (priority 2020, published 2023).

What was measured:
LPS-induced sepsis = LPS-induced sepsis in mice, oral administration: serum 23-plex immune marker panel; assay type: in vivo, C57BL/6 mice
Procedure: Male C57BL/6 mice weighing 10-20 g were used. Vehicle and active agents (i.e., CBD and hydroxychloroquine) alone or in combination were administered intraperitoneally (IP) (Table 4) or orally (Table 5) at 1 hour before LPS (100 μg/100 μL/mouse) injected intravenously (IV). At 2 hours after LPS injection, blood was collected from all mice by cardiac puncture, sera processed and assayed for biomarkers using either the Th17-plex for IL-1β, IL-2, IL-10, IL-12 (p70), IFN-γ and TNF-α by Luminex, plus IL-6 and D-dimer by ELISA, or the 23-plex for IL-1α, IL-1β, IL-2, IL-3, IL-4, IL-5, IL-6, IL-9, IL-10, IL-12(p40), IL-12(p70), IL-13, IL-17A, Eotaxin, G-CSF, GM-CSF, IFN-γ, KC, MCP-1(MCAF), MIP-1α, MIP-1β, RANTES, and TNF-α by Luminex, plus IL-6 by ELISA. ANOVA followed by Dunnett's test was applied for comparison between vehicle and treatment groups. p<0.05 is considered significant.

[1] = test system: LPS-induced pulmonary inflammation; experiment: LPS-induced pulmonary inflammation: BALF cytokines, synergy analysis; assay type: in vivo, C57BL/B6 mice; conditions: HCQ 25 mg/kg, alone or combined, observed; for IL-1β, relative inhibition of cytokine release (BALF) / MCP-1, relative inhibition of cytokine release (BALF) / TNF-α, relative inhibition of cytokine release (BALF): CBD 1 mg/kg; for CXCL-1, relative inhibition of cytokine release (BALF): CBD 10 mg/kg
Procedure: Male C57BL/B6 mice weighing 10-20 g were used. Vehicle and active agents (i.e., CBD and hydroxychloroquine) alone or in combination were administered intraperitoneally (IP) at 1 hour before LPS (˜80 mg/kg) was administered intratracheally. 24 hours after LPS injection, mice were anaesthetized with pentoparbital and 0.5 mL of PBS was administered twice through a tracheal cannula after which approximately 0.6 mL of broncheoalveolar lavage fluid (BALF) was obtained. The BALF was assayed for IL-1β, TNF-α, MCP-1(MCAF) and CXCL-1 by Luminex. ANOVA followed by Dunnett's test was applied for comparison between vehicle and treatment groups. p<0.05 was considered significant.
For synergy analysis, data were baseline subtracted using the cytokine levels of sham treated mice (i.e., no LPS injection), before normalising the values for each cytokine relative to maximum values across the groups. The normalised values were used to calculate the relative inhibition where a value of 1 represents complete inhibition and a value of 0 represents no inhibition. Synergy was calculated using the statistical methods described elsewhere herein.
Drug synergy was determined using the Bliss Independence method where the predicted effect of the drug combination is calculated using the equation: […]

[2] = test system: collagen-induced arthritis; experiment: Collagen-induced arthritis; assay type: in vivo, Lewis rats; design: key to Clinical score Day 24, relative reduction / Pannus score, relative reduction / Total histology score, relative reduction: fractional reduction vs vehicle control, sham-baseline subtracted; conditions: for Clinical score Day 24, relative reduction / Pannus score, relative reduction / Paw volume Day 24, relative reduction / Total histology score, relative reduction / Relative reduction in serum cytokine levels: IL-1β / Relative reduction in serum cytokine levels: IL-6: CBD 1 mg/kg, HCQ 2.5 mg/kg, alone or combined; for Clinical score Day 24, relative reduction / Pannus score, relative reduction / Paw volume Day 24, relative reduction / Total histology score, relative reduction: observed
Procedure: Female Lewis rats were challenged with porcine type-II collagen with Freund's adjuvant on Day 1 (0.2 mg/0.2 mL/rat) by subcutaneous injection at the base of the tail to induce arthritis. A booster injection at 0.1 mg/0.1 mL/rat) was administered on Day 7. On Day 16, rats were allocated into groups of six based on hind paw volume, with animals allocated into groups to provide a similar distribution of hind paw volumes.
Vehicle and active agents (i.e., CBD and hydroxychloroquine) alone or in combination were administered intraperitoneally (IP) once a day starting from Day 17 to Day 30, i.e., for a total of 14 consecutive days.
Disease was assessed by measuring hind paw volume with plethysmometer and using a qualitative severity score system as outlined in Table 32 on Day 1, 7, 10, 14, 16, 18, 20, 22, 24, 26, 28 and 30.
Post-termination on Day 30, blood was collected from all rats and analysed for levels of the inflammatory cytokines IL-1β, IL-6 and TNF-α by ELISA. Both hind paws were harvested, weighed and formalin-fixed for histopathology. Tissue was assessed to evaluate cartilage and bone destruction by pannus formation and mononuclear cell infiltration in synovial tissues according to the scoring matrices set out in Tables 33 and 34. A total histology score, being the sum of the pannus formation and mononuclear cell infiltration score, was also calculated.
For synergy analysis, data were baseline subtracted using sham treated […] (i.e., no collagen injection), before normalising the values relative to vehicle control. Synergy was calculated using the statistical methods described elsewhere herein.

[3] = hydroxychloroquine 20 mg/kg PO alone
[4] = HCQ 25 mg/kg alone vs CBD 1 mg/kg + HCQ 2.5 mg/kg
[5] = HCQ 25 mg/kg alone vs CBD 1 mg/kg + HCQ 2.5 mg/kg, serum

C=C(C)[C@@H]1CCC(C)=C[C@H]1c1c(O)cc(CCCCC)cc1O [CBD, cannabidiol]
Effect on biomarker levels (LPS-induced sepsis; CBD 1 mg/kg PO alone): little or no effect
LPS-induced IL-1α release vs vehicle group (LPS-induced sepsis; CBD 10 mg/kg PO alone): moderate suppression
LPS-induced IL-1β release vs vehicle group (LPS-induced sepsis; CBD 10 mg/kg PO alone): moderate suppression
LPS-induced IL-2 release vs vehicle group (LPS-induced sepsis; CBD 10 mg/kg PO alone): moderate suppression
LPS-induced IL-4 release vs vehicle group (LPS-induced sepsis; CBD 10 mg/kg PO alone): moderate suppression
LPS-induced IL-5 release vs vehicle group (LPS-induced sepsis; CBD 10 mg/kg PO alone): moderate suppression
LPS-induced IL-9 release vs vehicle group (LPS-induced sepsis; CBD 10 mg/kg PO alone): moderate suppression
IL-1β, relative inhibition of cytokine release (BALF) [1]: 0.03
MCP-1, relative inhibition of cytokine release (BALF) [1]: 0.07
TNF-α, relative inhibition of cytokine release (BALF) [1]: 0.23
CXCL-1, relative inhibition of cytokine release (BALF) [1]: 0.14
Clinical score Day 24, relative reduction [2]: 0.21
Pannus score, relative reduction [2]: 0.07
Paw volume Day 24, relative reduction [2]: 0.04
Total histology score, relative reduction [2]: 0.11
Relative reduction in serum cytokine levels: IL-1β ([2]; serum): 0.31
Relative reduction in serum cytokine levels: IL-6 ([2]; serum): 0.50

CCN(CCO)CCCC(C)Nc1ccnc2cc(Cl)ccc12 (stereo not shown) [HCQ]
Effect on biomarker levels (LPS-induced sepsis; hydroxychloroquine 2 mg/kg PO alone): little or no effect
LPS-induced IL-1α release vs vehicle group (LPS-induced sepsis; [3]): moderate suppression
LPS-induced IL-1β release vs vehicle group (LPS-induced sepsis; [3]): moderate suppression
LPS-induced IL-2 release vs vehicle group (LPS-induced sepsis; [3]): moderate suppression
LPS-induced IL-4 release vs vehicle group (LPS-induced sepsis; [3]): moderate suppression
LPS-induced IL-5 release vs vehicle group (LPS-induced sepsis; [3]): moderate suppression
LPS-induced IL-9 release vs vehicle group (LPS-induced sepsis; [3]): moderate suppression
IL-1β, relative inhibition of cytokine release (BALF) [1]: 0.20
MCP-1, relative inhibition of cytokine release (BALF) [1]: 0.09
TNF-α, relative inhibition of cytokine release (BALF) [1]: 0.14
CXCL-1, relative inhibition of cytokine release (BALF) [1]: 0.35
Clinical score Day 24, relative reduction [2]: 0.18
Pannus score, relative reduction [2]: 0.07
Paw volume Day 24, relative reduction [2]: 0.04
Total histology score, relative reduction [2]: 0.15
Relative reduction in serum cytokine levels: IL-1β ([2]; serum): 0.37
Relative reduction in serum cytokine levels: IL-6 ([2]; serum): 0.51
Clinical score Day 24, reduction in disease severity [2, 4]: 0.21
Clinical score Day 30, reduction in disease severity [2, 4]: 0.26
Mononuclear cell infiltration, reduction in disease severity [2, 4]: 0.24
Pannus score, reduction in disease severity [2, 4]: 0.28
Paw volume Day 24, reduction in disease severity [2, 4]: 0.10
Paw volume Day 30, reduction in disease severity [2, 4]: 0.20
Total histology score, reduction in disease severity [2, 4]: 0.26
IL-1B, reduction [2, 5]: 0.25
IL-6, reduction [2, 5]: 0.36
